For this experiment, the system named is Helicoverpa armigera. The experiment can be described thus: gossypol tolerance test, larvae on artificial diet supplemented with gossypol. Type of experiment: in vivo. To be noted: third-instar larvae. On the procedure: Cotton bollworm (Helicoverpa armigera) eggs were purchased from Benzon research laboratory. See the world wide web at benzonresearch.com/insectlist.htm. They were hatched at 25° C. and all the larvae were fed with the artificial diet (Southland Products Incorporated on the world wide web at tecinfo.com/˜southland/. All dishes were kept at 25° C. on a 14-h-day/10-h-night cycle. For the gossypol tolerance experiments, third instars larvae were transferred to the artificial diet supplemented with gossypol (0-4 mg) for 4 d and the increase in weight was recorded.
Gossypol and related sesquiterpene biosynthesized in cotton are toxic to many organisms. However, most Helicoverpa insects resist gossypol because the P450 monooxygenases in the midgut of these insects permit them to tolerate the gossypol. Therefore, in order to suppress P450 gene, two step insect bioassay was conducted. In the first step, third-instar larvae of Helicoverpa armigera were fed on P450: RNAi expressed leaves for four days. Then, all these larvae were transferred to the following diet or leaves: artificial diet with 3 mg/g gossypol or without gossypol; cotton leaves with glands/glandless and wild-type tobacco leaves. Addition of gossypol in the artificial diet or in leaves affects the growth and development of the larvae (FIG. 3). […]

As for `Cc1cc2c(C(C)C)c(O)c(O)c(C=O)c2c(O)c1-c1c(C)cc2c(C(C)C)c(O)c(O)c(C=O)c2c1O` [gossypol], the “net weight increase of larvae” value (higher concentrations (3-4 mg/g) of gossypol diet) was 15.1 to 55.4 mg. Moreover, the “weight increases of larvae” value (low concentration gossypol diet (1-2 mg/g)) is 163 to 190 mg.

The record behind these values is patent US10889825B2, “Compositions and methods thereof for down-regulation of genes following oral delivery of an RNAi molecule bioencapsulated within plant cells” (THE TRUSTEES OF THE UNIVERSITY OF PENNSYLVANIA, priority 2015, dated 2021).
